In patent US20220194945A1, “Imidazolopyridine Compounds For IRE1 Inhibition” (Optikira, LLC, priority 2019, published 2022):
pIC50: −log10 of the molar value.

How the values were obtained:
XBP1 splicing = test: Cellular XBP1 splicing assay; type: cell-based; settings: ARPE-19 cells stably expressing XBP1-nano-luciferase, thapsigargin 150 nM, 4 hour incubation
Protocol: Cellular XBP1 Splicing Assay
ARPE-19 cells stably expressing XBP1 (a.a. 1-376) with nano-luciferase gene sequence linked so it is in frame when XBP1 is spliced, were cultured in F12 media, 10% FBS, 0.044% sodium bicarbonate, 150 μg/ml hygromycin B and seeded for assays at 5,000 cells in 384 well plates in culture media without hygromycin B and incubated at 37° C./5% CO2. After overnight incubation test compounds were added to the cell plate in a 10-point ½ log dilution series in duplicate (final DMSO concentration 0.117%). After further incubation of 30 minutes thapsigargin was added (final concentration 150 nM) and then another 4 hour incubation. A NanoLuc luciferase assay (Promega) was used according to the manufacturer's instructions to detect the luciferase and luminescence measured on a luminometer (EnVision, PerkinElmer). IC50 values calculated by fitting a sigmoidal curve to percent inhibition of control of compound concentration.
(§1) In vitro assay data are for the inhibition of RNase activity of IRE1α. Cellular assay (IC50 data) are for the XBP1 splicing assay.

IRE1α = molecular target: T1, IRE1α (Homo sapiens, UniProt O75460); test: Biochemical assay: inhibition of RNase activity of IRE1α; settings: IRE1α kinase (E31-11G, Signal Chem) 0.325 nM, substrate 100 nM, 30 min pre-incubation, read-out: In vitro assay IC50
T1 construct: purchased Signal Chem E31-11G
Protocol: Biochemical Assay: Inhibition of RNase activity of IRE1α
The RNase reactions were performed in 384 well black ProxiPlate-384 Plus plates (PERKIN Elmer) using 50 mM Tris assay buffer with 0.5 mM MgCl2, 10 mM KCl, 0.03% Tween, 2 mM DTT and 1% DMSO. Test compounds were prepared on the day of assay and dispensed using D300 digital dispenser as a 10-point ½ log dilution series in duplicate, normalized to a final DMSO concentration of […]. Test compounds were pre-incubated for 30 min at room temperature with IRE1α kinase (E31-11G from Signal Chem) in 2.5 μL of assay buffer. Then 2.5 μl of assay buffer containing substrate (5′ Alexa Fluor 647-rCrArU rGrUrC rCrGrC rArGrC rGrCrArUrG-Iowa Black RQ quencher 3′) added, giving a final concentration of enzyme of 0.325 nM and of substrate of 100 nM. After 20 minutes incubation at room temperature the reactions were stopped by added 5 μL of 5M urea, incubated at room temperature for 10 minutes and fluorescence measured on a plate reader (EnVision, PerkinElmer) IC50 values calculated by fitting a sigmoidal curve to percent inhibition of control versus compound concentration.
as §1

T1 sequence (O75460 468-977 limits assumed): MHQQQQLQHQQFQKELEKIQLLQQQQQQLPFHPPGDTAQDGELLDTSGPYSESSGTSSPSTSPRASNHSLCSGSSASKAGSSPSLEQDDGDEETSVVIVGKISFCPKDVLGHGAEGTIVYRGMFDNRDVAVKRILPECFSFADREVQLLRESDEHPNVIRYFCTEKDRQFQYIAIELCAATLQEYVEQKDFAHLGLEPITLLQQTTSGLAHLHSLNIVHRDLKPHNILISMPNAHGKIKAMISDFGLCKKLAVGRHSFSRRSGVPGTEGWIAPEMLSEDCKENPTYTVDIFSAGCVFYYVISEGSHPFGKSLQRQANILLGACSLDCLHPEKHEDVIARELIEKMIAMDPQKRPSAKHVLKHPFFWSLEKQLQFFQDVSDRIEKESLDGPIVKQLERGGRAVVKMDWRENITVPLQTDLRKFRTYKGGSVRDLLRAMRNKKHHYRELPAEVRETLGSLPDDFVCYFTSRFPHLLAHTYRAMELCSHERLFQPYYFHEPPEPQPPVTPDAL

pIC50 (XBP1 splicing; Homo sapiens)	pIC50 (IRE1α)	SMILES	pIC50 (XBP1 splicing)
6.29	6.54	CC(C)c1nc(-c2ccc(NS(=O)(=O)c3ccccc3Cl)c(F)c2)c2c(N)ncc([C@H]3CC[C@@H](N)CC3)n12 [Example 1, N-(4-(8-Amino-5-((1s,4s)-4-aminocyclohexyl)-3-isopropylimidazo[1,5-a]pyrazin-1-yl)-2-fluorophenyl)-2-chlorobenzenesulfonamide]	
7.82	7.82	CC(C)c1nc(-c2ccc(NS(=O)(=O)c3ccccc3Cl)c(F)c2)c2c(N)ncc([C@H]3CC[C@H](N)CC3)n12 [Example 2, N-(4-(8-Amino-5-((1r,4r)-4-aminocyclohexyl)-3-isopropylimidazo[1,5-a]pyrazin-1-yl)-2-fluorophenyl)-2-chlorobenzenesulfonamide]	
6.52	6.55	CC(C)c1nc(-c2ccc(NS(=O)(=O)c3ccccc3Cl)c(F)c2)c2c(N)ncc([C@H]3CC[C@@H](NC4COC4)CC3)n12 [Example 3, N-(4-(8-Amino-3-isopropyl-5-((1s,4s)-4-(oxetan-3-ylamino)cyclohexyl)imidazo[1,5-a]pyrazin-1-yl)-2-fluorophenyl)-2-chlorobenzenesulfonamide]	
7.01	6.82	CC(C)c1nc(-c2ccc(NS(=O)(=O)c3ccccc3F)c(F)c2)c2c(N)ncc(C3=CCC(NC4COC4)CC3)n12 (centres unmarked) [Example 6, N-(4-(8-Amino-3-isopropyl-5-(4-(oxetan-3-ylamino)cyclohex-1-en-1-yl)imidazo[1,5-a]pyrazin-1-yl)-2-fluorophenyl)-2-fluorobenzenesulfonamide]	
6.27	6.82	CC(C)c1nc(-c2cc(F)c(NS(=O)(=O)c3ccccc3F)cc2F)c2c(N)ncc(C3=CCC(NC4COC4)CC3)n12 (centres unmarked) [Example 7, N-(4-(8-Amino-3-isopropyl-5-(4-(oxetan-3-ylamino)cyclohex-1-en-1-yl)imidazo[1,5-a]pyrazin-1-yl)-2,5-difluorophenyl)-2-fluorobenzenesulfonamide]	
6.77	6.96	CC(C)c1nc(-c2cc(F)c(NS(=O)(=O)c3ccccc3Cl)cc2F)c2c(N)ncc(C3=CCC(NC4COC4)CC3)n12 (centres unmarked) [Example 8, N-(4-(8-Amino-3-isopropyl-5-(4-(oxetan-3-ylamino)cyclohex-1-en-1-yl)imidazo[1,5-a]pyrazin-1-yl)-2,5-difluorophenyl)-2-chlorobenzenesulfonamide]	
6.12	7.16	CC(C)c1nc(-c2ccc(NS(=O)(=O)c3ccccc3F)c(F)c2Cl)c2c(N)ncc(C3=CCC(NC4COC4)CC3)n12 (centres unmarked) [Example 9, N-(4-(8-Amino-3-isopropyl-5-(4-(oxetan-3-ylamino)cyclohex-1-en-1-yl)imidazo[1,5-a]pyrazin-1-yl)-3-chloro-2-fluorophenyl)-2-fluorobenzenesulfonamide]	
5.11	7.21	CC(C)c1nc(-c2cnc(NS(=O)(=O)c3ccccc3Cl)c(F)c2)c2c(N)ncc(C3=CCC(NC4COC4)CC3)n12 (centres unmarked) [Example 10, N-(5-(8-Amino-3-isopropyl-5-(4-(oxetan-3-ylamino)cyclohex-1-en-1-yl)imidazo[1,5-a]pyrazin-1-yl)-3-fluoropyridin-2-yl)-2-chlorobenzenesulfonamide]	
5.51	6.38	COc1ccc(S(=O)(=O)Nc2ccc(-c3nc(C(C)C)n4c(C5=CCC(NC6COC6)CC5)cnc(N)c34)cc2F)cn1 (centres unmarked) [Example 11, N-(4-(8-Amino-3-isopropyl-5-(4-(oxetan-3-ylamino)cyclohex-1-en-1-yl)imidazo[1,5-a]pyrazin-1-yl)-2-fluorophenyl)-6-methoxypyridine-3-sulfonamide]	
5.18	6.85	CC(C)c1nc(-c2ccc(NS(=O)(=O)c3ccc(C(F)(F)F)nc3)c(F)c2)c2c(N)ncc(C3=CCC(NC4COC4)CC3)n12 (centres unmarked) [Example 12, N-(4-(8-Amino-3-isopropyl-5-(4-(oxetan-3-ylamino)cyclohex-1-en-1-yl)imidazo[1,5-a]pyrazin-1-yl)-2-fluorophenyl)-6-(trifluoromethyl)pyridine-3-sulfonamide]	
5.19	6.44	Cc1cncc(S(=O)(=O)Nc2ccc(-c3nc(C(C)C)n4c(C5=CCC(NC6COC6)CC5)cnc(N)c34)cc2F)c1 (centres unmarked) [Example 13, N-(4-(8-Amino-3-isopropyl-5-(4-(oxetan-3-ylamino)cyclohex-1-en-1-yl)imidazo[1,5-a]pyrazin-1-yl)-2-fluorophenyl)-5-methylpyridine-3-sulfonamide]	
5.27		CC(C)c1nc(-c2ccc(NS(=O)(=O)c3ccccn3)c(F)c2)c2c(N)ncc(C3=CCC(NC4COC4)CC3)n12 (centres unmarked) [Example 14, N-(4-(8-Amino-3-isopropyl-5-(4-(oxetan-3-ylamino)cyclohex-1-en-1-yl)imidazo[1,5-a]pyrazin-1-yl)-2-fluorophenyl)pyridine-2-sulfonamide]	
5.19	6.32	Cc1nc(S(=O)(=O)Nc2ccc(-c3nc(C(C)C)n4c(C5=CCC(NC6COC6)CC5)cnc(N)c34)cc2F)cs1 (centres unmarked) [Example 15, N-(4-(8-Amino-3-isopropyl-5-(4-(oxetan-3-ylamino)cyclohex-1-en-1-yl)imidazo[1,5-a]pyrazin-1-yl)-2-fluorophenyl)-2-methylthiazole-4-sulfonamide]	
6.96	7.96	CC(C)c1nc(-c2ccc(NS(=O)(=O)c3ccccc3Cl)c(F)c2)c2c(N)ncc(C3=CCC(NCCS(C)(=O)=O)CC3)n12 (centres unmarked) [Example 16, N-(4-(8-Amino-3-isopropyl-5-(4-((2-(methylsulfonyl)ethyl)amino)cyclohex-1-en-1-yl)imidazo[1,5-a]pyrazin-1-yl)-2-fluorophenyl)-2-chlorobenzenesulfonamide]	
5.13	7.40	Cc1nc(CS(=O)(=O)Nc2ccc(-c3nc(C(C)C)n4c(C5=CCC(N)CC5)cnc(N)c34)cc2F)cs1 (centres unmarked) [Example 17, N-(4-(8-Amino-5-(4-aminocyclohex-1-en-1-yl)-3-isopropylimidazo[1,5-a]pyrazin-1-yl)-2-fluorophenyl)-1-(2-methylthiazol-4-yl)methanesulfonamide]	
7.07	7.09	CC(C)c1nc(-c2ccc(NS(=O)(=O)c3ccccc3Cl)c(F)c2)c2c(N)ncc(C3=CCC(N4CCOCC4)CC3)n12 (centres unmarked) [Example 18, N-(4-(8-Amino-3-isopropyl-5-(4-morpholinocyclohex-1-en-1-yl)imidazo[1,5-a]pyrazin-1-yl)-2-fluorophenyl)-2-chlorobenzenesulfonamide]	
7.39	7.36	COCCNC1CC=C(c2cnc(N)c3c(-c4ccc(NS(=O)(=O)c5ccccc5Cl)c(F)c4)nc(C(C)C)n23)CC1 (centres unmarked) [Example 19, N-(4-(8-amino-3-isopropyl-5-(4-((2-methoxyethyl)amino)cyclohex-1-en-1-yl)imidazo[1,5-a]pyrazin-1-yl)-2-fluorophenyl)-2-chlorobenzenesulfonamide]	
< 5.00	< 6.00	COc1nc(NS(=O)(=O)c2ccccc2Cl)ccc1-c1nc(C(C)C)n2c(C3=CCC(NC4COC4)CC3)cnc(N)c12 (centres unmarked) [Example 20, N-(5-(8-amino-3-isopropyl-5-(4-(oxetan-3-ylamino)cyclohex-1-en-1-yl)imidazo[1,5-a]pyrazin-1-yl)-6-methoxypyridin-2-yl)-2-chlorobenzenesulfonamide]	
5.21	< 6.00	Cc1nc(NS(=O)(=O)c2ccccc2Cl)ccc1-c1nc(C(C)C)n2c(C3=CCC(NC4COC4)CC3)cnc(N)c12 (centres unmarked) [Example 21, N-(5-(8-amino-3-isopropyl-5-(4-(oxetan-3-ylamino)cyclohex-1-en-1-yl)imidazo[1,5-a]pyrazin-1-yl)-6-methylpyridin-2-yl)-2-chlorobenzenesulfonamide]	
8.77	8.82	CC(C)c1nc(-c2ccc(NS(=O)(=O)Cc3ccccc3Cl)c(F)c2)c2c(N)ncc(C3=CCC(N(C)C)CC3)n12 (centres unmarked) [Example 22]	

SMILES	pIC50 (XBP1 splicing; Homo sapiens)	pIC50 (IRE1α)	pIC50 (XBP1 splicing)
CC(C)c1nc(-c2ccc(NS(=O)(=O)c3ccccc3Cl)c(F)c2)c2c(N)ncc([C@H]3CC[C@H](NC4COC4)CC3)n12 [Example 4, N-(4-(8-Amino-3-isopropyl-5-((1r,4r)-4-(oxetan-3-ylamino)cyclohexyl)imidazo[1,5-a]pyrazin-1-yl)-2-fluorophenyl)-2-chlorobenzene sulfonamide]		8.19	8.30
